Assay results: ChEMBL document CHEMBL1154392 (Bioorg Med Chem Lett, 2009)

How the values were obtained:
A-375 = experiment: Cytotoxicity against human A375 cells expressing B-RafV600E mutant; format: functional, cell-based
[1] = target: Serine/threonine-protein kinase B-raf (Homo sapiens, UniProt P15056); experiment: Inhibition of human recombinant B-Raf expressed in Sf9 cells assessed as inhibition of Mek1 phosphorylation
Caco-2 = experiment: Cytotoxicity against human Caco-2 cells expressing wild type B-Raf; format: functional, cell-based
HT-29 = experiment: Cytotoxicity against human HT-29 cells expressing B-RafV600E mutant; format: functional, cell-based
[2] = target: Mitogen-activated protein kinase kinase kinase kinase 2 (Homo sapiens, UniProt Q12851); experiment: Inhibition of GCK
[3] = target: Mitogen-activated protein kinase 14 (Homo sapiens, UniProt Q16539); experiment: Inhibition of p38alpha
[4] = target: Protein kinase C alpha type (Homo sapiens, UniProt P17252); experiment: Inhibition of PKCalpha
Aurora kinase B = Aurora kinase B (Homo sapiens, UniProt Q96GD4); experiment: Inhibition of Aurora B
[5] = target: Ribosomal protein S6 kinase alpha-1 (Homo sapiens, UniProt Q15418); experiment: Inhibition of RSk1
[6] = target: Tyrosine-protein kinase Lyn (Homo sapiens, UniProt P07948); experiment: Inhibition of LYN
Sequence of Tyrosine-protein kinase Lyn (P07948 whole entry): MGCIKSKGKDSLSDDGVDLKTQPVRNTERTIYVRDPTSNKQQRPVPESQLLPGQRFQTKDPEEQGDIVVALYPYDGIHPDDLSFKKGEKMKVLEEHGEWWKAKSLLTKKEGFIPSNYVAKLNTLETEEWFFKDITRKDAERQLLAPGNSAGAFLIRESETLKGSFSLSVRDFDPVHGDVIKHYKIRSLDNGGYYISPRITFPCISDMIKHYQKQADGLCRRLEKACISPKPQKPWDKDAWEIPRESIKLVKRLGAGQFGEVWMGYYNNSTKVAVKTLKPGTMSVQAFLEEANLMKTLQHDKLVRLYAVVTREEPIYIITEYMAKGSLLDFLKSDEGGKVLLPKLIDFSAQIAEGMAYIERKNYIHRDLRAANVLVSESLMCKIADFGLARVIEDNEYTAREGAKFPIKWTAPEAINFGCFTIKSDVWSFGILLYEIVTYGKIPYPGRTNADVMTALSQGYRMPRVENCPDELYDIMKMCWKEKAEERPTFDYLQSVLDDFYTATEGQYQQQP

[7] = target: Cyclin-dependent kinase 2 (Homo sapiens, UniProt P24941); experiment: Inhibition of CDK2
[8] = target: Serine/threonine-protein kinase Chk1 (Homo sapiens, UniProt O14757); experiment: Inhibition of CHK1
[9] = Inhibition of VEGFR2
[10] = target: Tyrosine-protein kinase ABL1 (Homo sapiens, UniProt P00519)
[11] = target: Cyclin-dependent kinase 1 (Homo sapiens, UniProt P06493); experiment: Inhibition of CDK1
Sequence of Cyclin-dependent kinase 1 (P06493 whole entry): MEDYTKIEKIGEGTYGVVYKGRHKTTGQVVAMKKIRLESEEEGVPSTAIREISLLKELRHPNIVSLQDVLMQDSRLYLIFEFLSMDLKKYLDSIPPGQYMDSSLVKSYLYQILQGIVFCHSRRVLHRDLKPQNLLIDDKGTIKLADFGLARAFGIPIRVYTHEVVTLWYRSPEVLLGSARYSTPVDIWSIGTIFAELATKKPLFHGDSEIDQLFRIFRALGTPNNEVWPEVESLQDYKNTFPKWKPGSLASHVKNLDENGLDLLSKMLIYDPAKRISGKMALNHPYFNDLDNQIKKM

[12] = target: Proto-oncogene tyrosine-protein kinase Src (Homo sapiens, UniProt P12931); experiment: Inhibition of SRC
[13] = target: Inhibitor of nuclear factor kappa-B kinase subunit alpha (Homo sapiens, UniProt O15111); experiment: Inhibition of IKKalpha
Sequence of Inhibitor of nuclear factor kappa-B kinase subunit alpha (O15111 whole entry): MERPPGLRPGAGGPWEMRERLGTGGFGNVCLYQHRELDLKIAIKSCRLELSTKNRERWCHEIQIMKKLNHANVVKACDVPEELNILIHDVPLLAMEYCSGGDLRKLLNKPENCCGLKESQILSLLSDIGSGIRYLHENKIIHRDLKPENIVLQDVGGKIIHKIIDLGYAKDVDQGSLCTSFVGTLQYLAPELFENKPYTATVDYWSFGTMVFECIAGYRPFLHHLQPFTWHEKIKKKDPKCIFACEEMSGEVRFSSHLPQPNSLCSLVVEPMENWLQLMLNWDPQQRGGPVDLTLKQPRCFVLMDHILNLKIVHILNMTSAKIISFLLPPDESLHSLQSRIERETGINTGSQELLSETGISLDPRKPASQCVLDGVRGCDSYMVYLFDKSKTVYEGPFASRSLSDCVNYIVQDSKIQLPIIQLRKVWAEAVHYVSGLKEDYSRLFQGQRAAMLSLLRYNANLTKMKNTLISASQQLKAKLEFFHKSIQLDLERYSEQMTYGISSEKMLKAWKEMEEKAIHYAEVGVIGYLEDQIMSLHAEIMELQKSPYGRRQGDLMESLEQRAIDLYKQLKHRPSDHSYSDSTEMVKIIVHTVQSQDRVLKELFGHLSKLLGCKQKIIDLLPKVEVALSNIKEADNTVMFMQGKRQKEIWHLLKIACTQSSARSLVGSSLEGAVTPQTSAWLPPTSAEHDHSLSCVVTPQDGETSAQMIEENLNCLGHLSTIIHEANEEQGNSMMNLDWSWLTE

[14] = target: Inhibitor of nuclear factor kappa-B kinase subunit beta (Homo sapiens, UniProt O14920); experiment: Inhibition of IKK-beta
Sequence of Inhibitor of nuclear factor kappa-B kinase subunit beta (O14920 whole entry): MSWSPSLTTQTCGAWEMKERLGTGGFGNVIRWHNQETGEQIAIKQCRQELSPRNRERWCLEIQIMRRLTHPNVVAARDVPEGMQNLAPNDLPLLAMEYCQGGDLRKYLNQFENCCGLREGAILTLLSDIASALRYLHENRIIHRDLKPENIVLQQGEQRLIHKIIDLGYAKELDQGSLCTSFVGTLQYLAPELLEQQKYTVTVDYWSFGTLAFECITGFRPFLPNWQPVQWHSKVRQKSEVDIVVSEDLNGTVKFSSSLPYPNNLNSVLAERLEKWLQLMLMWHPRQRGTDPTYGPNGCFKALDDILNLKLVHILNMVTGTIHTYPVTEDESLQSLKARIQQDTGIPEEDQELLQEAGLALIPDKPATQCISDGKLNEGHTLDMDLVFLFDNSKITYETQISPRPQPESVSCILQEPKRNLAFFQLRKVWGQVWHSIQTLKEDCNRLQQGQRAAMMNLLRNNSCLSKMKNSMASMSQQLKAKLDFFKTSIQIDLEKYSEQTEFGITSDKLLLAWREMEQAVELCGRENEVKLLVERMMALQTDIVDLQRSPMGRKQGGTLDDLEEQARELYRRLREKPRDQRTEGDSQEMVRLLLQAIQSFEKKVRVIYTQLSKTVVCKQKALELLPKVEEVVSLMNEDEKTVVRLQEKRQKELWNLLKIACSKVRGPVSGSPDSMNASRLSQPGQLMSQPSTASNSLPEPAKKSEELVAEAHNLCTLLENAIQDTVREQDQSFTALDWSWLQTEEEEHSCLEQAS

[15] = target: Protein kinase C beta type (Homo sapiens, UniProt P05771); experiment: Inhibition of PKCbeta
[16] = target: Tyrosine-protein kinase HCK (Homo sapiens, UniProt P08631); experiment: Inhibition of HCK
Sequence of Tyrosine-protein kinase HCK (P08631 whole entry): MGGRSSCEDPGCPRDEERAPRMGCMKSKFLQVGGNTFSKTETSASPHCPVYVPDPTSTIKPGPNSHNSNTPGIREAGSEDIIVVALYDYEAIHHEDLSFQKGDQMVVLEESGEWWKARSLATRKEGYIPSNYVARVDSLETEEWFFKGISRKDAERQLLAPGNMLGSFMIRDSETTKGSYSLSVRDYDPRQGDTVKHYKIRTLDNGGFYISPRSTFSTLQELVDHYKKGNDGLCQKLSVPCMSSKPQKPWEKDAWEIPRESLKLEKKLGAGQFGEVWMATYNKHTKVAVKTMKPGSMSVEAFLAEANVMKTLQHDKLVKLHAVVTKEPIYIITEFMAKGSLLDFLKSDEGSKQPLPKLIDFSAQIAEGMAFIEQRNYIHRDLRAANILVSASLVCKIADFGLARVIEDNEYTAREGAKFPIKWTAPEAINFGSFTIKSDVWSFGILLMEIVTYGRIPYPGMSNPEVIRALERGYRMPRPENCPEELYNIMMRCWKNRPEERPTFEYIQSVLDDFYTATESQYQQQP

[17] = target: Tyrosine-protein kinase Fyn (Homo sapiens, UniProt P06241); experiment: Inhibition of FYN
Sequence of Tyrosine-protein kinase Fyn (P06241 whole entry): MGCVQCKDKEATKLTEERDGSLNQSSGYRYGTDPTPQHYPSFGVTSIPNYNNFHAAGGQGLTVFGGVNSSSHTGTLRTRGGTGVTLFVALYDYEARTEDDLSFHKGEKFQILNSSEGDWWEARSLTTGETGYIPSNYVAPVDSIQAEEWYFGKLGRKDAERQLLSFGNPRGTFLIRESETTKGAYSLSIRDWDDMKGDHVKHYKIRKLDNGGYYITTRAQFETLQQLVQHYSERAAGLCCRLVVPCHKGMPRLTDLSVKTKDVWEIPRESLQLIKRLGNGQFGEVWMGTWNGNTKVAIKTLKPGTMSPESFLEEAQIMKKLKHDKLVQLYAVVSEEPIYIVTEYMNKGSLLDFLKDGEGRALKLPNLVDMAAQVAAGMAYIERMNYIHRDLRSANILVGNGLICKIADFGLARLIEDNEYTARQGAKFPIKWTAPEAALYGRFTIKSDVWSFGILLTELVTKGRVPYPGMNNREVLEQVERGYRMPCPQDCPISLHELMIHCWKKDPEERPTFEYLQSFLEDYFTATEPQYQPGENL

[18] = Inhibition of PKA
[19] = target: Casein kinase I isoform gamma-1 (Homo sapiens, UniProt Q9HCP0); experiment: Inhibition of CK1gamma1
[20] = target: Platelet-derived growth factor receptor alpha (Homo sapiens, UniProt P16234); experiment: Inhibition of PDGFRalpha
[21] = target: Rho-associated protein kinase 1 (Homo sapiens, UniProt Q13464); experiment: Inhibition of ROCK1
[22] = target: MAP kinase-activated protein kinase 2 (Homo sapiens, UniProt P49137); experiment: Inhibition of MK2
[23] = target: Mitogen-activated protein kinase 1 (Homo sapiens, UniProt P28482); experiment: Inhibition of ERK2
[24] = target: Hepatocyte growth factor receptor (Homo sapiens, UniProt P08581); experiment: Inhibition of Met

Sequence of Serine/threonine-protein kinase B-raf (P15056 whole entry): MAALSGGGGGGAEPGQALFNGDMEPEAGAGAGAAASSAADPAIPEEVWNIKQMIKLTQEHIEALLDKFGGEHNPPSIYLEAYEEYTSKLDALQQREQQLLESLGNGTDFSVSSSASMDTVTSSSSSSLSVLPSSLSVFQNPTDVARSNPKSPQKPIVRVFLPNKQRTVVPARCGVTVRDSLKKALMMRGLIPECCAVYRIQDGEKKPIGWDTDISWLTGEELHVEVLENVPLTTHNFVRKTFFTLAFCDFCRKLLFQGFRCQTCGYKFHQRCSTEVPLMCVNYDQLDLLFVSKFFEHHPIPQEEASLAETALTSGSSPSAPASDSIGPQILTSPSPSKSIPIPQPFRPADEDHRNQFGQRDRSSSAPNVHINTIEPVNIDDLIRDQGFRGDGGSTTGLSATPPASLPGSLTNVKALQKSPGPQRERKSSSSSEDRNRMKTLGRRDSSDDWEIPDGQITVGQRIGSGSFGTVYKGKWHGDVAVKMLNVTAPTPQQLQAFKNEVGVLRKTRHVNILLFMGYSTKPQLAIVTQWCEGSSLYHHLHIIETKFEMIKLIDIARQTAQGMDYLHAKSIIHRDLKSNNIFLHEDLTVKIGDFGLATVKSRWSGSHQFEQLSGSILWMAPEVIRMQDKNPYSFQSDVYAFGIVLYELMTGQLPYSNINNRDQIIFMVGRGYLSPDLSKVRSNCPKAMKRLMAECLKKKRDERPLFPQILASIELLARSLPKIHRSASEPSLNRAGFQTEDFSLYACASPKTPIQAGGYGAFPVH

In the case of `CC(=O)N1C[C@@H]2C[C@H]1CN2c1ccc(-c2ccnc3c(-c4ccc(F)c(O)c4)c(-c4ccncc4)nn23)cc1`, the IC50 (A-375) is reported as 210 nM.
In the case of `COc1cc(-c2c(-c3ccncc3)nn3c(-c4ccc(N5C[C@@H]6C[C@H]5CN6C)cc4C)ccnc23)ccc1F`, the IC50 [1] is reported as 1 nM and the IC50 (A-375) is reported as 933 nM.
For `COc1cc(-c2c(-c3ccncc3)nn3c(-c4ccc(N5C[C@@H]6C[C@H]5CN6)cc4)ccnc23)ccc1F`, the IC50 (A-375) was 1200 nM.
Compound `CN1C2CCC1CN(c1ccc(-c3ccnc4c(-c5cccc(O)c5)c(-c5ccncc5)nn34)cc1)C2` has an IC50 [1] of 0.9 nM, an IC50 (Caco-2) of 1300 nM and an IC50 (HT-29) of 270 nM. For the same compound, the IC50 (A-375) was 300 nM.
`COc1cccc(-c2c(-c3ccncc3)nn3c(-c4ccc(N5C[C@@H]6C[C@H]5CN6C)cc4)ccnc23)c1` showed an IC50 (A-375) of 760 nM.
With `COc1cc(-c2c(-c3ccncc3)nn3c(-c4ccc(N5C[C@@H]6C[C@H]5CN6C)cc4)ccnc23)ccc1F` the IC50 (A-375) was 6000 nM.
With `CCN1C[C@@H]2C[C@H]1CN2c1ccc(-c2ccnc3c(-c4ccc(F)c(O)c4)c(-c4ccncc4)nn23)cc1` the IC50 [1] was 0.51 nM and the IC50 (A-375) was 200 nM.
`COc1cccc(-c2c(-c3ccncc3)nn3c(-c4ccc(N5C[C@@H]6C[C@H]5CN6)cc4)ccnc23)c1` showed an IC50 [1] of 12 nM and an IC50 (A-375) of 1100 nM.
With `COc1cccc(-c2c(-c3ccncc3)nn3c(-c4ccc(N5C[C@@H]6C[C@H]5CN6)cc4F)ccnc23)c1` the IC50 [1] was 0.44 nM and the IC50 (A-375) was 504 nM.
Compound `COc1cccc(-c2c(-c3ccncc3)nn3c(-c4ccc(N5CC6CCC(C5)N6C)cc4)ccnc23)c1` has an IC50 [1] of 17 nM and an IC50 (A-375) of 1900 nM.
With `CN1C2CCC1CN(c1ccc(-c3ccnc4c(-c5ccc(Cl)c(O)c5)c(-c5ccncc5)nn34)cc1)C2` the IC50 [1] was under 0.32 nM and the IC50 (A-375) was 170 nM.
Work on `CN1C[C@@H]2C[C@H]1CN2c1ccc(-c2ccnc3c(-c4cccc(O)c4)c(-c4ccncc4)nn23)c(Cl)c1` yielded an IC50 [1] of under 0.32 nM and an IC50 (A-375) of under 10 nM.
For `CN1C[C@@H]2C[C@H]1CN2c1ccc(-c2ccnc3c(-c4ccc(F)c(O)c4)c(-c4ccncc4)nn23)cc1`, the IC50 [1] was under 0.32 nM and the IC50 (A-375) was 76 nM.
Compound `Cc1cc(N2C[C@@H]3C[C@H]2CN3C)ccc1-c1ccnc2c(-c3ccc(F)c(O)c3)c(-c3ccncc3)nn12` has an IC50 [1] of under 0.32 nM and an IC50 (A-375) of 15 nM.
`Oc1cccc(-c2c(-c3ccncc3)nn3c(-c4ccc(N[C@H]5CN6CCC5CC6)cc4)ccnc23)c1` gave an IC50 [1] of 1 nM and an IC50 (A-375) of 385 nM.
`Cc1cc(N2C[C@@H]3C[C@H]2CN3C)ccc1-c1ccnc2c(-c3cccc(O)c3)c(-c3ccncc3)nn12` gave an IC50 [1] of under 0.32 nM and an IC50 (A-375) of 31 nM.
Work on `Oc1cccc(-c2c(-c3ccncc3)nn3c(-c4ccc(N5C[C@@H]6C[C@H]5CN6)cc4)ccnc23)c1` yielded an IC50 [1] of 0.49 nM and an IC50 (A-375) of 300 nM.
`Cc1cc(N2C[C@@H]3C[C@H]2CN3)ccc1-c1ccnc2c(-c3cccc(O)c3)c(-c3ccncc3)nn12` showed an IC50 (A-375) of 65 nM.
In the case of `CN1C[C@@H]2C[C@H]1CN2c1ccc(-c2ccnc3c(-c4cccc(O)c4)c(-c4ccncc4)nn23)c(F)c1`, the IC50 [1] is reported as under 0.32 nM and the IC50 (A-375) is reported as 12 nM.
`Oc1cccc(-c2c(-c3ccncc3)nn3c(-c4ccc(N[C@@H]5CN6CCC5CC6)cc4)ccnc23)c1` gave an IC50 [1] of 1.5 nM and an IC50 (A-375) of 370 nM.
`CN1C[C@@H]2C[C@H]1CN2c1ccc(-c2ccnc3c(-c4cccc(O)c4)c(-c4ccncc4)nn23)cc1` showed an IC50 [2] of 4100 nM, an IC50 [3] of 69 nM and an IC50 [4] of 2460 nM. For the same compound, the IC50 [1] was 0.38 nM, the IC50 (Aurora kinase B) was 25500 nM and the IC50 [5] was 9710 nM. It also gave an IC50 [6] of 1760 nM, an IC50 [7] of 26400 nM and an IC50 [8] of 18600 nM. The IC50 [9] was 222 nM, the IC50 [10] was 563 nM and the IC50 [11] was 28400 nM. The IC50 [12] was 675 nM, the IC50 [13] was over 50000 nM and the IC50 [14] was over 50000 nM. It also gave an IC50 [15] of 119 nM, an IC50 [16] of 1240 nM and an IC50 [17] of 1940 nM. For the same compound, the IC50 [18] was 1790 nM, the IC50 [19] was 9510 nM and the IC50 (A-375) was 77 nM. For the same compound, the IC50 [20] was 6560 nM, the IC50 [21] was 17600 nM and the IC50 [22] was 17100 nM. For the same compound, the IC50 [23] was over 50000 nM and the IC50 [24] was 3100 nM.
In the case of `COc1cc(-c2c(-c3ccncc3)nn3c(-c4ccc(N5CC6CCC(C5)N6C)cc4)ccnc23)ccc1Cl`, the IC50 [1] is reported as 9.7 nM and the IC50 (A-375) is reported as 630 nM.
In the case of `Oc1cccc(-c2c(-c3ccncc3)nn3c(-c4ccc(NCC56CCN(CC5)CC6)cc4)ccnc23)c1`, the IC50 [1] is reported as 2 nM and the IC50 (A-375) is reported as 930 nM.
In the case of `Oc1cccc(-c2c(-c3ccncc3)nn3c(-c4ccc(N5C[C@@H]6C[C@H]5CN6)cc4F)ccnc23)c1`, the IC50 [1] is reported as under 0.32 nM and the IC50 (A-375) is reported as 23 nM.
For `Oc1cccc(-c2c(-c3ccncc3)nn3c(-c4ccc(N5C[C@@H]6C[C@H]5CN6)cc4Cl)ccnc23)c1`, the IC50 [1] was under 0.32 nM and the IC50 (A-375) was 16 nM.
`Oc1cc(-c2c(-c3ccncc3)nn3c(-c4ccc(N5C[C@@H]6C[C@H]5CN6)cc4)ccnc23)ccc1F` gave an IC50 [1] of under 0.32 nM and an IC50 (A-375) of 150 nM.
With `CCOC(=O)c1cnn2c(-c3cccc(NC(=O)c4cccc(C(F)(F)F)c4)c3)ccnc12` the IC50 [1] was 1500 nM.
